{
  "source": "patent US20140228407A1",
  "about": "“TETRA-PYRIDINE COMPOUNDS AND COMPOSITION FOR PROTECTING CELLS, TISSUES AND ORGANS AGAINST ISCHEMIA-REPERFUSION INJURY” (YISSUM RESEARCH DEVELOPMENT COMPANY OF THE HEBREW …, priority 2011, published 2014)",
  "tested_on": "neonate rat cardiomyocyte cells",
  "assay": "Hypoxia/ischemia in neonatal rat cardiomyocyte cultures, LDH release",
  "assay_type": "cell-based",
  "conditions": "30, 100 and 300 nm compound vs 1 μM TPEN; 150 min ischemia then reoxygenation",
  "procedure": "Rat hearts (1-2 days old) were sterilely removed and bathed three times in Ca^2+- and Mg^2+-free PBS to remove excess blood cells. The hearts were minced to small fragments and then agitated in a proteolytic enzyme-RDB solution prepared from a fig tree extract as described previously (Brik et al., 1990; Shneyvays et al., 2001). The RDB was diluted 1:200 in PBS at 25° C. for a few cycles of 10 min each. The supernatant suspension containing dissociated cells, to which medium containing 10% horse serum was added, was centrifuged at 500 g for 5 min. After centrifugation, the supernatant phase was discarded, and cells were resuspended in Dulbecco's modified Eagle medium supplemented with 10% heat-inactivated horse serum and 0.5% chick embryo extract. Cell suspensions were diluted to 1×10^6 cells/ml, and 300 μl was placed in 24 well plates (4 plates) collagen/gelatin-coated plastic culture dishes. Cultures were incubated in a humidified atmosphere of 5% CO2 and 95% air at 37° C. […] The growth medium was replaced every 3 days. The experiments were performed in vitro on these cardiomyocyte cultures after 3 to 5 days. […]\nLDH activity was determined using LDH-L kit (Thermo Trace, Melbourne, Australia) within the cardiac cell medium (PBS). […] LDH enzymatic activity was measured in a spectrophotometer at a wavelength of 340 nm at 30° C. […]",
  "data": [
    {"molecule": "Cc1ccc(CN(CCN(Cc2ccc(C)cn2)Cc2ccc(C)cn2)Cc2ccc(C)cn2)nc1", "note": "[Compound #6]", "values": [
      {"measurement": "protective effect against hypoxic insult (LDH release) compared with TPEN, FIG. 1A", "value": "significantly better protective outcome from hypoxia than TPEN"}
    ]}
  ]
}
